The text below walks through data of patent US11351164B2, “Inhibitors of indoleamine 2,3-dioxygenase and methods of their use” (BRISTOL-MYERS SQUIBB COMPANY, priority 2016, dated 2022).

Assay [1] has as its target T1, indoleamine 2,3-dioxygenase (IDO) (Homo sapiens, UniProt P14902).
T1 construct: host or cells: HeLa cells treated with IFNγ (25 ng/mL)
Nature of the assay: HeLa cell-based indoleamine 2,3-dioxygenase (IDO) assay (IFNγ-induced kynurenine production, absorbance 480 nm). The following applies: HeLa cells, IFNγ 25 ng/mL, 48 hour incubation. The procedure:
Assessment of inhibitor activity in HeLa cell-based indoleamine 2,3-dioxygenase (IDO) assay:
HeLa (ATCC® CCL-2) cells were obtained from the ATCC® and cultured in Dulbecco's Modified Eagle Medium supplemented with 4.5 g/L glucose, […] L-glutamine and […] (#10-013-CV, Corning), 2 mM L-alanyl-L-glutamine dipeptide (#35050-061, Gibco), 100U/mL penicillin, 100 μg/mL stroptomycin (#SV30010. HyClone) and 10% fetal bovine serum (#SH30071.03 HyClone). Cells were maintained in a humidified incubator at 37° C. in 5% CO2.
IDO activity was assessed as a function of kynurenine production as follows: HeLa cells were seeded in a 96-well culture plate at a density of 5,000 cells/well and allowed to equilibrate overnight. After 24 hours, the media was aspirated and replaced with media containing IFNγ (#285-IF/CF, R&D Systems) at a final concentration of 25 ng/mL. A serial dilution of each test compound was added to the cells in a total volume of 200 μL of culture medium. After a further 48 hour incubation, 170 μL of supernatant was transferred from each well to a fresh 96-well plate, 12.1 μL of 6.1N trichloroacetic acid (#T0699, Sigma-Aldrich) was added to each well and mixed, followed by incubation at 65° C. for 20 minutes to hydrolyze N-formylkynurenine, the product of indoleamine 2,3-dioxygenase, to kynurenine. The reaction mixture was then centrifuged for 10 mins at 500×g to sediment the precipitate. 100 μL of the supernatant was transferred from each well to a fresh 96-well plate. 100 μl of 2% (w/v) p-dimethylaminobenzaldehyde (#15647-7, Sigma-Aldrich) in acetic acid (#A6283, Sigma-Aldrich) was added to each well mixed and incubated at room temperature for 20 mins. Kynurenine concentrations were determined by measuring absorbance at 480 nm and calibrating against an L-kynurenine (#K8625, Sigma-Aldrich) standard curve using a SPECTRAMAX® M2e microplate reader (Molecular Devices). The percentage activity at each inhibitor concentration was determined and IC50 values assessed using nonlinear regression.

In assay [2] the target is T2, human IDO1 (Homo sapiens, UniProt P14902).
T2 construct: expressed in transfected cells
Nature of the assay: IDO inhibition assay in HEK293 cells stably expressing human IDO1 (kynurenine, Ehrlich reagent, absorbance 490 nm). It counts as cell-based. The following applies: 20 hours incubation, read-out: IDO1 HEK Human IC50. How it is done: HEK293 cells were transfected with a pCDNA-based mammalian expression vector harboring human IDO1 cDNA (NM 002164.2) by electroporation. They were cultured in medium (DMEM with 10% FBS) containing 1 mg/ml G418 for two weeks. Clones of HEK293 cells that stably expressed human IDO1 protein were selected and expanded for IDO inhibition assay. The human IDO1/HEK293 cells were seeded at 10,000 cells per 50 μL per well with RPMI/phenol red free media contains 10% FBS in a 384-well black wall clear bottom tissue culture plate (Matrix Technologies LLC) 100 nL of certain concentration of compound was then added to each well using ECHO liquid handling systems. The cells were incubated for 20 hours in 37° C. incubator with 5% CO2. The compound treatments were stopped by adding trichloroacetic acid (Sigma-Aldrich) to a final concentration at 0.2%. The cell plate was further incubated at 50° C. for 30 minute. The equal volume supernatant ([…]) and 0.2% (w/v) Ehrlich reagent (4-dimethylaminobenzaldehyde, Sigma-Aldrich) in glacial acetic acid were mixed in a new clear bottom 384-well plate. This plate was then incubated at room temperature for 30 minute. The absorbance at 490 nm was measured on Envision plate reader. Compound IC50 values were calculated using the counts of 500 nM of a reference standard treatment as one hundred percent inhibition, and counts of no compound but DMSO treatment as zero percent inhibition.

T1 sequence (P14902 whole entry): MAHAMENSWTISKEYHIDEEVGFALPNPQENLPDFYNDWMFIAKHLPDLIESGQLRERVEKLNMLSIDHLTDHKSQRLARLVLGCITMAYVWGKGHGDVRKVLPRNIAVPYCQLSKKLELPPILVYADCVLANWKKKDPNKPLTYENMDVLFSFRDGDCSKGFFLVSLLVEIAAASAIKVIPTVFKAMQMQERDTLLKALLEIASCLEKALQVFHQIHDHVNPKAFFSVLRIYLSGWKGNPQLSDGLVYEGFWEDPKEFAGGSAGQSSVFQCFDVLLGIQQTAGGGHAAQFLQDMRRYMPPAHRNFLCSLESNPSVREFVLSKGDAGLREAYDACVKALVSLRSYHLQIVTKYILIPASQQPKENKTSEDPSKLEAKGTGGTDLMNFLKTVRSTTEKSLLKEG
T2 sequence (P14902 whole entry): as above

For `CCC(Nc1nnc(-c2ccc(Cl)cc2)o1)[C@H]1CC[C@@H](c2ccnc3ccc(C(F)(F)F)cc32)CC1` (single isomer, unassigned) [Example 58-1, 5-(4-Chlorophenyl)-N-(1-((1s,4s)-4-(6-(trifluoromethyl)quinolin-4-yl)cyclohexyl)propyl)-1,3,4-oxadiazol-2-amine], inhibition in assay [1] was half-maximal at 326 nM (IC50).
In the case of `CCC(Nc1nnc(-c2ccc(Cl)cc2)o1)[C@H]1CC[C@@H](c2ccnc3ccc(C(F)(F)F)cc32)CC1` (single isomer, unassigned) [Example 58-2, 5-(4-Chlorophenyl)-N-(1-((1s,4s)-4-(6-(trifluoromethyl)quinolin-4-yl)cyclohexyl)propyl)-1,3,4-oxadiazol-2-amine], in assay [1], the IC50 came out at 7.4 nM.
As to `CCC(Nc1nnc(-c2ccc(OC)cc2)o1)C1CCC(c2ccnc3ccc(C(F)(F)F)cc23)CC1` (single isomer, unassigned) [Example 59, 5-(4-methoxyphenyl)-N-(1-((1s,4s)-4-(6-(trifluoromethyl)quinolin-4-yl)cyclohexyl)propyl)-1,3,4-oxadiazol-2-amine], the IC50 was found to be 4.7 nM in assay [1] and 6 nM in assay [2].
On to `CCC(Nc1nnc(-c2ccc(OC)cc2)o1)C1CCC(c2ccnc3ccc(C(F)(F)F)cc23)CC1` (single isomer, unassigned) [Example 60, 5-(4-methoxyphenyl)-N-(1-((1s,4s)-4-(6-(trifluoromethyl)quinolin-4-yl)cyclohexyl)propyl)-1,3,4-oxadiazol-2-amine], for which half-maximal inhibition in assay [1] (IC50) required 54.8 nM.
As to `CCC(Nc1nnc(-c2ccc(F)cc2)o1)C1CCC(c2ccnc3ccc(C(F)(F)F)cc23)CC1` (single isomer, unassigned) [Example 62, 5-(4-fluorophenyl)-N-(1-((1s,4s)-4-(6-(trifluoromethyl)quinolin-4-yl)cyclohexyl)propyl)-1,3,4-oxadiazol-2-amine], the half-inhibitory concentration (IC50) in assay [1] stood at 3.5 nM; in assay [2], 1.7 nM.
`CCC(Nc1nnc(-c2ccc(OC)cc2)o1)[C@H]1CC[C@@H](c2ccnc(F)c2C)CC1` (single isomer, unassigned) [Example 63-1, N-(1-((1s,4s)-4-(2-Fluoro-3-methylpyridin-4-yl)cyclohexyl)propyl)-5-(4-methoxyphenyl)-1,3,4-oxadiazol-2-amine] yielded an IC50 in assay [1] of 26.2 nM.
On to `CCC(Nc1nnc(-c2ccc(OC)cc2)o1)C1CCC(Oc2ccnc3ccccc23)CC1` (single isomer, unassigned) [Example 64-1], for which the IC50 in assay [1] was found to be 916 nM.
Same read-out and setting: for `CCC(Nc1nnc(-c2ccc(OC)cc2)o1)C1CCC(Oc2ccnc3ccccc23)CC1` (single isomer, unassigned) [Example 64-2] the value was 8.9 nM; for `COCC(Nc1nnc(-c2ccc(OC)cc2)o1)[C@H]1CC[C@@H](c2ccnc3ccc(F)cc32)CC1` (single isomer, unassigned) [Example 65-1, N-(1-((1s,4s)-4-(6-Fluoroquinolin-4-yl)cyclohexyl)-2-methoxyethyl)-5-(4-methoxyphenyl)-1,3,4-oxadiazol-2-amine], 15.6 nM.
Turning to `C[C@@H](c1nnc(-c2ccc(Cl)cc2)[nH]1)[C@H]1CC[C@@H](c2ccnc3ccc(F)cc32)CC1` [Example 1, 4-((1s,4s)-4-((R)-1-(5-(4-Chlorophenyl)-4H-1,2,4-triazol-3-yl)ethyl)cyclohexyl)-6-fluoroquinoline], the IC50 worked out at 14.8 nM in assay [1] and 47.5 nM in assay [2].
With `C[C@@H](c1nnc(-c2ccc(F)cc2)o1)[C@H]1CC[C@@H](c2ccnc3ccc(F)cc32)CC1` [Example 2, 2-(4-Fluorophenyl)-5-((R)-1-((1s,4s)-4-(6-fluoroquinolin-4-yl)cyclohexyl)ethyl)-1,3,4-oxadiazole], the results for the IC50 in assay [1] and in assay [2] were 34.8 nM and 39.2 nM, respectively.
As for `C[C@@H](c1nnc(-c2ccc(F)cc2)[nH]1)[C@H]1CC[C@@H](c2ccnc3ccc(F)cc32)CC1` [Example 3, 6-Fluoro-4-((1s,4s)-4-((R)-1-(5-(4-fluorophenyl)-4H-1,2,4-triazol-3-yl)ethyl)cyclohexyl)quinoline], the IC50 in assay [1] was 16.7 nM; in assay [2] it was 42.3 nM.
As for `C[C@@H](c1nnc(-c2ccc(Cl)cc2)s1)[C@H]1CC[C@@H](c2ccnc3ccc(F)cc32)CC1` [Example 5, 2-(4-Chlorophenyl)-5-((R)-1-((1s,4S)-4-(6-fluoroquinolin-4-yl)cyclohexyl)ethyl)-1,3,4-thiadiazole], the IC50 in assay [1] turned out to be 35 nM; in assay [2], 15.1 nM.
On to `C[C@@H](c1nnc(-c2ccc(F)c(Cl)c2)[nH]1)[C@H]1CC[C@@H](c2ccnc3ccc(F)cc32)CC1` [Example 11, 4-((1S,4s)-4-((R)-1-(5-(3-chloro-4-fluorophenyl)-4H-1,2,4-triazol-3-yl)ethyl)cyclohexyl)-6-fluoroquinoline], for which the IC50 in assay [1] worked out at 162 nM; in assay [2] it was 86 nM.
The corresponding values for `CC(C)Oc1ccc(-c2nnc([C@H](C)[C@H]3CC[C@@H](c4ccnc5ccc(F)cc54)CC3)[nH]2)cc1` [Example 12, 6-fluoro-4-((1S,4s)-4-((R)-1-(5-(4-isopropoxyphenyl)-4H-1,2,4-triazol-3-yl)ethyl)cyclohexyl)quinoline] are 39 nM and 22.5 nM.
The matching figures for `C[C@@H](c1nnc(-c2ccccc2)[nH]1)[C@H]1CC[C@@H](c2ccnc3ccc(F)cc32)CC1` [Example 13, 6-fluoro-4-((1S,4s)-4-((R)-1-(5-phenyl-4H-1,2,4-triazol-3-yl)ethyl)cyclohexyl)quinoline]: 118 nM and 48.2 nM.
For the compound `C[C@@H](c1nnc(-c2cccc(F)c2)[nH]1)[C@H]1CC[C@@H](c2ccnc3ccc(F)cc32)CC1` [Example 14, 6-fluoro-4-((1S,4s)-4-((R)-1-(5-(3-fluorophenyl)-4H-1,2,4-triazol-3-yl)ethyl)cyclohexyl)quinoline], the IC50 worked out at 72.2 nM in assay [1] and 36.2 nM in assay [2].
In the case of `CC(C)Oc1ccc(-c2nnc([C@H](C)[C@H]3CC[C@@H](c4ccnc5ccc(F)cc54)CC3)o2)cc1` [Example 18, 2-((R)-1-((1s,4S)-4-(6-fluoroquinolin-4-yl)cyclohexyl)ethyl)-5-(4-isopropoxyphenyl)-1,3,4-oxadiazole], the values for the IC50 in assay [1] and in assay [2] were 55.5 nM and 66.3 nM, respectively.
On to `C[C@@H](c1nnc(-c2ccccc2)o1)[C@H]1CC[C@@H](c2ccnc3ccc(F)cc32)CC1` [Example 19, 2-((R)-1-((1s,4S)-4-(6-fluoroquinolin-4-yl)cyclohexyl)ethyl)-5-phenyl-1,3,4-oxadiazole], for which the figures for the IC50 in assay [1] and in assay [2] were 5.5 nM and 13.8 nM, respectively.
Regarding `C[C@@H](Nc1ncc(-c2ccc(Cl)cc2)o1)[C@H]1CC[C@@H](c2ccnc3ccc(F)cc32)CC1` [Example 38, 5-(4-Chlorophenyl)-N—((R)-1-((1s,4S)-4-(6-fluoroquinolin-4-yl)cyclohexyl)ethyl)oxazol-2-amine], half-maximal inhibition in assay [1] (IC50) was put at 21.1 nM.
Same read-out and setting: next, `C[C@@H](Nc1ncc(-c2ccc(Cl)cc2)s1)[C@H]1CC[C@@H](c2ccnc3ccc(F)cc32)CC1` [Example 39, 5-(4-Chlorophenyl)-N—((R)-1-((1s,4S)-4-(6-fluoroquinolin-4-yl)cyclohexyl)ethyl)thiazol-2-amine]: 288 nM; `CCC(Nc1nnc(-c2ccc(OC)cc2)o1)[C@H]1CC[C@@H](c2ccnc3c(C(F)(F)F)cccc32)CC1` (stereo partly shown) [Example 68, 5-(4-Methoxyphenyl)-N-(1-((1s,4s)-4-(8-(trifluoromethyl)quinolin-4-yl)cyclohexyl)propyl)-1,3,4-oxadiazol-2-amine]: 20.2 nM.

As a reminder, the IC50 is the concentration that inhibits the measured activity by half.
